Measured values from US8153593B2, “Transglutaminase inhibitors and methods of use thereof” (The Board of Trustees of the Leland Stanford Junior …, priority 2003, dated 2012).

Legend:
[1] = tested on: IOMM-Lee meningioma cells; assay: Meningioma cell sensitization to radiation, TG2-fibronectin Western blot; type: cell-based; settings: 0.5 mM KCC009
Method: FIG. 4: Top left: control IOMM meningioma cells; Top right: IOMM cells exposed to 20 Gy radiation; Bottom left: IOMM cells exposed to 0.5 mM KCC009 and 20 Gy radiation.
FIG. 5: Western blot analysis of lysates from IOMM cells treated with KCC009 and/or BCNU. Lysates were immunoprecipitated with anti-fibronectin antibodies, and the Western blots were probed with anti-TG2 antibodies. Lanes (left to right): Control, KCC009 only, BCNU only, KCC009+BCNU. KCC009 and BCNU were used at concentrations of 0.5 mM and 6.25 μM, respectively. Disappearance of TG2 from lanes treated with KCC009 illustrates loss of association of TG2 with the extracellular matrix.
To verify the therapeutic utility of KCC009 against meningiomas, IOMM-Lee meningioma cells were treated with 20 Gy of radiation with and without KCC009. […] Similar data was also obtained when KCC009 was used in combination with BCNU.

intracranial DBT tumors = assay: Intracranial DBT glioblastoma dose-finding and chemosensitizer studies; type: in vivo, mice
Method: To test whether therapeutic doses of KCC009 can modulate TG2 activity associated with intracranial glioblastomas, DBT tumors were injected intracranially in mice. As judged by MRI, the mice consistently established intracranial tumors after 7-10 days following injections, which, if untreated, caused death by 2-3 weeks. In an initial dose-finding experiment, cohorts of mice were administered 4 daily doses of vehicle or KCC009 (12.5 mg/kg, 25 mg/kg and 50 mg/kg) starting on day 11 after intra-cranial injections. Twenty-four hours later, the mice were sacrificed and tumors analyzed. […] Based on these findings a dose of 35 mg/kg was used for subsequent experiments in mice harboring intracranial DBT tumors.
To evaluate the activity of KCC009 as a chemosensitizer, mice harboring DBT tumors were treated either with 10 mg/kg BCNU alone (2 mice) or BCNU+35 mg/kg KCC009 (3 mice). As before, 4 daily drug doses were administered intraperitoneally starting on day 11. Tumors were harvested for immuno-histological analysis 24 h after the last dose.

[2] = target: T1, recombinant human tissue transglutaminase (Homo sapiens, UniProt P21980); assay: tTGase inhibition assay, residual activity by glutamate dehydrogenase coupled assay; type: biochemical; settings: dihydroisoxazoles, Table 1
T1 construct: made in house
T1 sequence (P21980 1-687): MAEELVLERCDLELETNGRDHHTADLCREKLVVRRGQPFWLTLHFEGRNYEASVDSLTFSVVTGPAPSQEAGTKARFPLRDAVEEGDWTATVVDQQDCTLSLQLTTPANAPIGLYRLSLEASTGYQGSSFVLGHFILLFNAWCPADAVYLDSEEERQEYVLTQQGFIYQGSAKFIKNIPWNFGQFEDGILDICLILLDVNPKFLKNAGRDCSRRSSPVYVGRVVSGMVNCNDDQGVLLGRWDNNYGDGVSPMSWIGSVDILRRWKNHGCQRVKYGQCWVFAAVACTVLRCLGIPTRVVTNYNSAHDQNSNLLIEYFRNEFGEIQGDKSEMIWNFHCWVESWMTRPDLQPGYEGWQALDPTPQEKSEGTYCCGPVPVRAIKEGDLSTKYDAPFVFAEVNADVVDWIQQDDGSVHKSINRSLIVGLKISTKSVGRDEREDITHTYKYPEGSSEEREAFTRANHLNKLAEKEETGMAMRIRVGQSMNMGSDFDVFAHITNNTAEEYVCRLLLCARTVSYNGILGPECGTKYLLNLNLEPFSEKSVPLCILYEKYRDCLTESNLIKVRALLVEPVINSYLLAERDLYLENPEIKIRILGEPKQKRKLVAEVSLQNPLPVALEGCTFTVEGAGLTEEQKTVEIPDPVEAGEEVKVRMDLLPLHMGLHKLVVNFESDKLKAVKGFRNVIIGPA

[3] = target: T2, small intestine mucosal TG2 (Mus musculus, UniProt P21981); assay: Small intestine mucosal TG2 activity after intra-peritoneal dosing; type: in vivo, mice
T2 construct: from tissue; host or cells: mouse small intestinal mucosa
T2 sequence (P21981 1-686): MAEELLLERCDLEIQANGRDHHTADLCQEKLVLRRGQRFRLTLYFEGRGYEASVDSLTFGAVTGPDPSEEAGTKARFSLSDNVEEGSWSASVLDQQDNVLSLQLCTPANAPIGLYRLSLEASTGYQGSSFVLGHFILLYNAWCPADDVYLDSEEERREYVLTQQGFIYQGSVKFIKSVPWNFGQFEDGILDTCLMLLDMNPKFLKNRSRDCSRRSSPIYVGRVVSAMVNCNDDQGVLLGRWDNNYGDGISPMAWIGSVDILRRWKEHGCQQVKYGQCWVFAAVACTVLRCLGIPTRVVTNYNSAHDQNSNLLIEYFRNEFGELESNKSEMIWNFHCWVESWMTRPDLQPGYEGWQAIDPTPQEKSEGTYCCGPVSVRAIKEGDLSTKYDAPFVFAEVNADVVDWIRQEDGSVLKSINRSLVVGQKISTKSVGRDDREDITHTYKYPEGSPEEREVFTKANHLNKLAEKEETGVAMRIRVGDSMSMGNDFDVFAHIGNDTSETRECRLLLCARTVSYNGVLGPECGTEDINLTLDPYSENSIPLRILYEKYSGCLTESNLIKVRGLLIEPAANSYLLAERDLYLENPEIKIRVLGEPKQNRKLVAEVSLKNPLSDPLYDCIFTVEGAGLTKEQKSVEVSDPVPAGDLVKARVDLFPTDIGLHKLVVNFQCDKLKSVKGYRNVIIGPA
Method: FIG. 7: Time dependent inhibition of small intestine mucosal TG2 in mice dosed intra-peritoneally with 60 mg/kg KCC009. Mice were sacrificed at different times, intestinal mucosa were harvested and assayed for TG2 activity.
Due to the absence of an appropriate animal model for Celiac Sprue, the therapeutic benefit of TG2 inhibitors for this disease can only be validated in patients. Our goal is therefore to identify a safe, oral TG2 inhibitor that can block mucosal TG2 activity in the upper small intestine of Celiac Sprue patients. Such an agent could be used in the context of a short (2 week) blinded crossover trial in Celiac Sprue patients to determine if TG2 inhibition protects a Celiac Sprue patient from gluten-induced malabsorption. From available data, KCC009 may be precisely such a compound. […] To test whether orally administered KCC009 can inhibit jejunal TG2 activity, adult male rats were dosed with 35 mg/kg KCC009 in a kneaded gluten vehicle. Animals were sacrificed 1 h after administration of either vehicle-gluten (n=3) or drug-gluten (n=4), and jejunal mucosa was harvested. In vehicle treated animals, jejunal TG2 activity was 21±7 pmol/min/mg protein, whereas in KCC009 treated rats TG2 activity of 5.5±3 pmol/min/mg protein was observed. Thus, a suitable oral formulation may therefore enable local delivery of KCC009 to intestinal mucosa.

SMILES: O=C(N[C@@H](Cc1ccc(O)cc1)C(=O)NCC1CC(Br)=NO1)OCc1ccccc1 (stereo partly shown) [Compound 59]
- sensitization to radiation ([1]; 20 Gy radiation): dramatically sensitized meningioma cells to radiation
- association between TG2 and fibronectin ([1]; fibronectin immunoprecipitate, anti-TG2 Western blot): loss of association between TG2 and fibronectin
- fibronectin staining of tumors (intracranial DBT tumors; 10 mg/kg BCNU + 35 mg/kg KCC009 i.p., 4 daily doses, versus BCNU alone): decrease in fibronectin staining overall and an apparent dramatic decrease in the extracellular matrix
- gross tumor size and brain swelling (intracranial DBT tumors; 12.5 mg/kg or 25 mg/kg, 4 daily doses from day 11): smaller tumors and reduced brain swelling
- gross tumor (intracranial DBT tumors; 50 mg/kg, 4 daily doses from day 11, one mouse): did not have any gross tumor
- kinh [2]: 0.86 min⁻¹
- kinh/Ki [2]: 2000 min^−1M^−1
- time to complete recovery of TG2 activity ([3]; 60 mg/kg intra-peritoneal): ≤ 8 h
- inhibition of TG2 activity ([3]; 60 mg/kg intra-peritoneal, short timescale (˜1 h)): strong inhibition of TG2 activity
- TG2 inhibition in small intestinal tissue ([3]; mice, preliminary pharmacodynamic study): efficient TG2 inhibition
